# Test results as given in article PMC3667588 (Journal of pharmacological and toxicological methods, 2012).
# pEC50: −log10 of the molar value. “And” between values parts separate entries of the source, which are not always exact repeats. Identical values can stand only once. Like-named read-outs stand apart in the source and are kept apart here.
# Experiments:
# NRVMs [1] = assay: KIC calcium transients in T3-treated NRVMs paced at 2 Hz; assay type: cell-based, rat; conditions: NRVMs after T3 treatment, 100 µM, 12 seconds recording
# [2] = tested on: hiPSC-derived cardiomyocytes; assay: KIC spontaneous calcium transients in hiPSC-derived cardiomyocytes; assay type: cell-based, human; conditions: for EC50 T75-25 (in words) / EC50 Decay (in words) / EC50 FWHM (in words) / EC50 Rise Time (in words): N.S., not significant vs vehicle by ANOVA/Dunnett; for Effect on spontaneous calcium transient (in words): dose-response
# hERG K^+ channel = conditions: PC-Xl; ref Hansen, et al., 2006; cited from earlier work
# hiPSC-CMs = assay type: cell-based, human; conditions: for Effect on paced [Ca^2+]i transients at 1 µM / Effect on paced [Ca^2+]i transients at 10 µM: 1 Hz pacing; for Effect on paced [Ca^2+]i transients at 0.1 µM: 4 stimulations at 1 Hz
# hERG = conditions: cited from earlier work; for Reported EC50/IC50: PC-cc, et al.
# KATP channel = conditions: TM-ec; ref Houjou, et al., 1996; cited from earlier work
# NRVMs [3] = assay: KIC Ca2+ transient analysis in neonatal rat ventricular myocytes; assay type: cell-based; conditions: for FWHM / T75-25 / TDecay / TRise: NRVMs treated three days with 100 nM T3, Ca2+ transient
# L-type Ca^2+ channel = conditions: CR-mc; ref Ogawa, et al., 1992; cited from earlier work
# Na^+ channel = conditions: PC-Xl; ref Ramos & O'Leary, 2004; cited from earlier work
# [4] = Homo sapiens, Cardiomyocyte, read-out: EC50 Decay
# [5] = Homo sapiens, Cardiomyocyte, read-out: EC50 FWHM
# [6] = Homo sapiens, Cardiomyocyte, read-out: EC50 Rise Time
# [7] = Homo sapiens, Cardiomyocyte, read-out: EC50 T75-25
# [8] = read-out: EC50 Decay, spontaneous calcium transients, hiPSC-CMs
# [9] = read-out: EC50 FWHM, spontaneous calcium transients, hiPSC-CMs
# [10] = read-out: EC50 Rise Time, spontaneous calcium transients, hiPSC-CMs
# [11] = read-out: EC50 T75-25, spontaneous calcium transients, hiPSC-CMs
# [12] = Average CTR minus average T3 (100 nM, three days)
compound,measurement,setting,value
C[C@@H]1CN(c2c(F)c(N)c3c(=O)c(C(=O)O)cn(C4CC4)c3c2F)C[C@H](C)N1 [sparfloxacin],Effect on paced calcium transients,NRVMs [1],highly asynchronous calcium transients
"O=C(Nc1cc(C(F)(F)F)ccc1O)Nc1cc(C(F)(F)F)ccc1O [NS1463, 1,3-Bis-(2-hydroxy-5-trifluoromethyl-phenyl)-urea]",pEC50,[2]; [4],5.60
same,pEC50,[2]; [5],5.15
same,pEC50,[2]; [6],5.41
same,pEC50,[2]; [7],5.63
same,Reported EC50/IC50,hERG K^+ channel,10.5µM PC-Xl
COc1cc(N)c(Cl)cc1C(=O)NC1CCN(CCCOc2ccc(F)cc2)CC1OC (stereo not drawn) [Cisapride],pEC50,[2]; [4],6.83
same,pEC50,[2]; [5],6.83
same,pEC50,[2]; [6],6.81
same,EC50 T75-25 (in words),[2],N.S
same,Effect on spontaneous calcium transient at 10 nM,"[2]; hiPSC-CMs, 10 nM",prolonged the calcium transient
same,Effect on spontaneous calcium transient at 100 nM,"[2]; hiPSC-CMs, 100 nM",reduction in the intensity of the transient and prolongation of the late phase of the decay
same,Effect on spontaneous calcium transient at higher concentrations,"[2]; hiPSC-CMs, concentrations above 100 nM",completely inhibited the occurrence of spontaneous transients
same,Effect on paced [Ca^2+]i transients at 1 µM,hiPSC-CMs,almost fused and the maxima were reduced to about half of the initial peak
same,Effect on paced [Ca^2+]i transients at 10 µM,hiPSC-CMs,narrowed and follow-on maxima were decreased
same,Effect on paced [Ca^2+]i transients at 0.1 µM,hiPSC-CMs,anomalous [Ca^2+]i kinetics
same,Reported EC50/IC50,"hERG; ref Mohammad, 1997, Potet, 2001, Toga, 2007",6.5–240 nM PC-cc
CCOc1cc(N)c(Cl)cc1C(=O)NCC1CN(Cc2ccc(F)cc2)CCO1 (stereo not drawn) [Mosapride],EC50 Decay (in words),[2],N.S.
same,EC50 FWHM (in words),[2],N.S.
same,EC50 Rise Time (in words),[2],N.S.
same,EC50 T75-25 (in words),[2],N.S.
same,Effect on spontaneous calcium transient (in words),[2]; hiPSC-CMs,did not induce statistically significant changes
same,Effect on spontaneous calcium transient (in words),"[2]; hiPSC-CMs, listed as mosapride",minimal effect only at the highest concentrations
same,Effect on paced [Ca^2+]i transients at 1 µM,hiPSC-CMs,no discernible differences
same,Effect on paced [Ca^2+]i transients at 10 µM,hiPSC-CMs,pattern similar to 0.1 µM cisapride
same,Effect on paced [Ca^2+]i transients at 0.1 µM,hiPSC-CMs,no discernible differences
same,Affinity for hERG relative to cisapride,"hERG; ref Toga, Kohmura, & Kawatsu, 2007",three orders of magnitude less affinity for hERG
CC(C)NCC(O)c1ccc(NS(C)(=O)=O)cc1 (stereo not drawn) [Sotalol],pEC50,[2]; [4],4.07
same,pEC50,[2]; [5],4.06
same,pEC50,[2]; [6],4.05
same,EC50 T75-25 (in words),[2],None
same,Reported EC50/IC50,"hERG; ref Peng, 2010",268µM PC-cc
Cc1cccc(CCN2CCC(C(=O)c3ccc(NS(C)(=O)=O)cc3)CC2)n1 [E-4031],pEC50,[2]; [8],7.34
same,pEC50,[2]; [9],7.36
same,pEC50,[2]; [10],7.41
same,pEC50,[2]; [11],7.09
CC1(C)Oc2ccc(C#N)cc2[C@@H](N2CCCC2=O)[C@@H]1O [Levcromakalim],pEC50,[2]; [4],5.28
same,pEC50,[2]; [5],5.04
same,pEC50,[2]; [6],5.43
same,pEC50,[2]; [7],5.51
same,Reported EC50/IC50,KATP channel,1.73 µM TM-ec
COc1ccc(CCN(C)CCCC(C#N)(c2ccc(OC)c(OC)c2)C(C)C)cc1OC (stereo not drawn) [Verapamil],pEC50,[2]; [4],6.77
same,pEC50,[2]; [5],6.59
same,pEC50,[2]; [6],6.34
same,pEC50,[2]; [7],6.41
same,Effect on spontaneous calcium transient (in words),[2]; hiPSC-CMs,dose-dependent reduction in the intensity and duration of the calcium transient
same,Effect on spontaneous calcium transient (in words),"[2]; hiPSC-CMs, listed as verapamil",completely blocked the Ca^2+ transient
"N[C@@H](Cc1cc(I)c(Oc2ccc(O)c(I)c2)c(I)c1)C(=O)O [T3, Triiodothyronine]","Difference in ms, FWHM",NRVMs [3]; [12],311 ms
same,"Difference in ms, T75-25",NRVMs [3]; [12],215 ms
same,"Difference in ms, TDecay",NRVMs [3]; [12],190 ms
same,"Difference in ms, TRise",NRVMs [3]; [12],119 ms
same,FWHM,NRVMs [3],567 ± 9 ms
same,T75-25,NRVMs [3],439 ± 44 ms
same,TDecay,NRVMs [3],462 ± 15 ms
same,TRise,NRVMs [3],104 ms and 104 ± 14 ms
same,FWHM,NRVMs [3]; listed as T3-1,567 ms
same,T75-25,NRVMs [3]; listed as T3-1,390 ms
same,TDecay,NRVMs [3]; listed as T3-1,447 ms
same,TRise,NRVMs [3]; listed as T3-1,120 ms
same,FWHM,NRVMs [3]; listed as T3-2,558 ms
same,T75-25,NRVMs [3]; listed as T3-2,450 ms
same,TDecay,NRVMs [3]; listed as T3-2,462 ms
same,TRise,NRVMs [3]; listed as T3-2,96 ms
same,FWHM,NRVMs [3]; listed as T3-3,576 ms
same,T75-25,NRVMs [3]; listed as T3-3,477 ms
same,TDecay,NRVMs [3]; listed as T3-3,477 ms
same,Reduction of FWHM,NRVMs [3]; T3 vs control NRVMs,35%
same,Reduction of T75-25,NRVMs [3]; T3 vs control NRVMs,33%
same,Reduction of TDecay,NRVMs [3]; T3 vs control NRVMs,29%
same,Reduction of TRise,NRVMs [3]; T3 vs control NRVMs,53%
CC(=O)Oc1ccccc1C(=O)O [Aspirin],EC50 Decay (in words),[2],N.S.
same,EC50 FWHM (in words),[2],N.S.
same,EC50 Rise Time (in words),[2],N.S.
same,EC50 T75-25 (in words),[2],N.S.
same,Effect on spontaneous calcium transient (in words),[2]; hiPSC-CMs,minimal effect only at the highest concentrations
COC(=O)C1=C(C)NC(C)=C([N+](=O)[O-])C1c1ccccc1C(F)(F)F (stereo not drawn) [Bay K 8644],Effect on spontaneous calcium transient (in words),[2]; hiPSC-CMs,increased the transient amplitude and prolonged its duration
same,pEC50,[2]; [8],8.20
same,pEC50,[2]; [9],7.96
same,pEC50,[2]; [10],5.89
same,pEC50,[2]; [11],8.26
same,Reported EC50/IC50,L-type Ca^2+ channel,10–100 nM CR-mc
CN(CCOc1ccc(NS(C)(=O)=O)cc1)CCc1ccc(NS(C)(=O)=O)cc1 [Dofetilide],pEC50,[2]; [4],9.12
same,pEC50,[2]; [7],8.23
same,EC50 FWHM (in words),[2],N.S
same,EC50 Rise Time (in words),[2],N.S.
O=C(NCC1CCCCN1)c1cc(OCC(F)(F)F)ccc1OCC(F)(F)F (stereo not drawn) [Flecainide],pEC50,[2]; [4],6.00
same,pEC50,[2]; [6],5.01
same,pEC50,[2]; [7],5.95
same,EC50 FWHM (in words),[2],N.S.
same,Reported EC50/IC50,Na^+ channel,7.4 µM PC-Xl
